Measurements: ChEMBL document CHEMBL4483862, “Open-source discovery of chemical leads for next-generation chemoprotective antimalarials” (2018)

Tested on: Plasmodium berghei
Assay: Luciferase/luciferin-expressing antifolate-resistant parasites were used to infect a culture of HepG2 cells that were pre-incubated with compounds. Infected hepatocytes emit light due to the luciferase reaction. Assay results are presented as the percent inhibition of light emission compared to control. […]
Assay type: functional
Settings: sporozoite; for IC90: read-out: LUCIFERASE INFECTION ASSAY - IC90
[1] = read-out: LUCIFERASE INFECTION ASSAY - IC50

SMILES	IC90 [µM]	IC50 [1] [µM]	other results
NC(=O)C(C(=O)/C=C/c1ccc(Cl)cc1)=C1SCS1	4.75		IC50 (PBLUC_HILL_SLOPE 78.5, PBLUC_R_SQUARED 0.479, read-out: LUCIFERASE INFECTION ASSAY - IC50): 4.62 µM
COc1ccc(OC)c(-c2csc(NC(=O)c3[nH]c(C)c(C(C)=O)c3C)n2)c1	> 10		IC50 (PBLUC_HILL_SLOPE 2.64, PBLUC_R_SQUARED 0.217, read-out: LUCIFERASE INFECTION ASSAY - IC50): 5.92 µM
CC(Nc1ccc(C(F)(F)F)cc1[N+](=O)[O-])C(=O)Nc1ccccc1C(=O)Nc1cccc(Cl)c1 (stereo not drawn)	> 10	> 10	
CC(C)Cc1nc(N2CCNCC2)c(C#N)c2c1CCCC2	> 11.1		IC50 (PBLUC_HILL_SLOPE 17, PBLUC_R_SQUARED 0.257, read-out: LUCIFERASE INFECTION ASSAY - IC50): 10 µM
Cc1cc(Cl)ccc1OCC(=O)c1c(-c2ccccc2)[nH]c2ccccc12	> 10		IC50 (PBLUC_HILL_SLOPE 2.14, 2.22, PBLUC_R_SQUARED 0.753, 0.563, read-out: LUCIFERASE INFECTION ASSAY - IC50): 6.03 µM
CCCCCCCOc1ccc(C(=O)CCC(=O)O)cc1	> 11.3	> 11.3	
CC(C)[C@H](NC(=O)c1ccc(C(C)(C)C)cc1)C(=O)Nc1nc2ccccc2[nH]1	> 10	> 10	
c1ccc(CSc2ncc(-c3nnnn3-c3ccccc3)c(-c3ccccc3)n2)cc1	> 7.81		IC50 (FFLUC_HILL_SLOPE 10.9, FFLUC_R_SQUARED 0.438, read-out: LUCIFERASE INFECTION ASSAY - IC50): > 7.81 µM
c1ccc2c(Sc3ncnc4sccc34)cccc2c1	> 11.2		IC50 (PBLUC_HILL_SLOPE 9.33, PBLUC_R_SQUARED 0.332, read-out: LUCIFERASE INFECTION ASSAY - IC50): > 11.2 µM
CCCNC(=O)c1c(NC(=O)c2ccc(C)cc2)nc2ccc(C)cn12	4.76		IC50 (FFLUC_HILL_SLOPE 15.6, FFLUC_R_SQUARED 0.337, HEPG2TOX_HILL_SLOPE 1.6, HEPG2TOX_R_SQUARED 0.209, PBLUC_HILL_SLOPE 10.4, PBLUC_R_SQUARED 0.336, read-out: LUCIFERASE INFECTION ASSAY - IC50): 3.85 µM
O=C(/C=C/c1cn(-c2ccccc2)nc1-c1cccnc1)Nc1nc(-c2ccccn2)cs1	8.39	5.33	
Cn1c(=O)[nH]c(=O)c2ccc(C(=O)/N=c3/sccn3Cc3ccc(Cl)cc3Cl)nc21	5.16		IC50 (HEPG2TOX_HILL_SLOPE 1.78, HEPG2TOX_R_SQUARED 0.947, PBLUC_HILL_SLOPE 2.11, PBLUC_R_SQUARED 0.878, read-out: LUCIFERASE INFECTION ASSAY - IC50): 1.82 µM
COc1cc(OC)cc(-c2cnc3cnc(-c4cccc(OC(C)C)c4)cn23)c1	> 8.47		IC50 (PBLUC_HILL_SLOPE 3.99, PBLUC_R_SQUARED 0.348, read-out: LUCIFERASE INFECTION ASSAY - IC50): 6.48 µM
O=C(/C(=N/Nc1ccc([N+](=O)[O-])cc1)C(=O)C(F)(F)F)c1cccs1	1		IC50 (HEPG2TOX_HILL_SLOPE 2.64, HEPG2TOX_R_SQUARED 0.853, PBLUC_HILL_SLOPE 14.9, PBLUC_R_SQUARED 0.662, read-out: LUCIFERASE INFECTION ASSAY - IC50): 0.866 µM
O=C1/C(=C\Nc2nnc(-c3ccccc3)c(-c3ccccc3)n2)c2ccccc2C(=O)N1c1cccc(C(F)(F)F)c1	> 10	> 10	
COc1cc(/C=C2\COc3c(Cl)cc(Cl)cc3C2=O)cc(OC)c1O	7.17		IC50 (FFLUC_HILL_SLOPE 30.3, FFLUC_R_SQUARED 0.145, HEPG2TOX_HILL_SLOPE 11.5, HEPG2TOX_R_SQUARED 0.166, PBLUC_HILL_SLOPE 35.9, PBLUC_R_SQUARED 0.493, read-out: LUCIFERASE INFECTION ASSAY - IC50): 6.74 µM
O=C(C1CC1)N1CCc2sccc2C1c1ccc(Cl)cc1 (stereo not drawn)	> 10.4		IC50 (PBLUC_HILL_SLOPE 3.12, PBLUC_R_SQUARED 0.0785, read-out: LUCIFERASE INFECTION ASSAY - IC50): 9.69 µM
Cc1ccc(O)c(C(=O)NCCC(C)C)c1	> 10		IC50 (HEPG2TOX_HILL_SLOPE 0.253, HEPG2TOX_R_SQUARED 0.657, PBLUC_HILL_SLOPE 0.85, PBLUC_R_SQUARED 0.659, read-out: LUCIFERASE INFECTION ASSAY - IC50): 2.35 µM
O=C(CN1c2cccc3cccc(c23)S1(=O)=O)N1CCN(C(=O)c2ccco2)CC1	> 10	> 10	
O=C(Nc1ccc(N2CCN(c3ncccc3C(F)(F)F)CC2)nc1)c1cccs1	0.867		IC50 (PBLUC_HILL_SLOPE 2.12, PBLUC_R_SQUARED 0.656, read-out: LUCIFERASE INFECTION ASSAY - IC50): 0.307 µM
CCSc1nc2scc(C(F)(F)F)n2c(=O)c1C(=O)N1CC(C)CC(C)C1 (stereo not drawn)	> 7.87	> 7.87	
Cc1cc(C(=O)NCCSc2ccccc2)c(C)n1C(C)C	6.44		IC50 (PBLUC_HILL_SLOPE 0.93, PBLUC_R_SQUARED 0.762, read-out: LUCIFERASE INFECTION ASSAY - IC50): 0.607 µM

SMILES	IC90 [µM]	IC50 [1] [µM]	other results
NC(=O)c1ccc(-c2cc(-c3ccccc3)cnc2N)cc1	4.22		IC50 (HEPG2TOX_HILL_SLOPE 7.43, HEPG2TOX_R_SQUARED 0.0328, PBLUC_HILL_SLOPE 16.6, PBLUC_R_SQUARED 0.439, read-out: LUCIFERASE INFECTION ASSAY - IC50): 3.7 µM
CCOc1cc(C(=O)N/N=C2/C(=O)N(C(C)C)c3ccccc32)cc(OCC)c1OCC	> 10	> 10	
OC[C@H]1O[C@@H](c2nc3cc(-c4nc(-c5ccccc5F)no4)ccc3[nH]2)C[C@@H]1O	2.9		IC50 (PBLUC_HILL_SLOPE 37.1, PBLUC_R_SQUARED 0.287, read-out: LUCIFERASE INFECTION ASSAY - IC50): 2.73 µM
c1ccc(-c2nnc3ccc(-c4cccs4)cn23)cc1	> 10		IC50 (HEPG2TOX_HILL_SLOPE 16.6, HEPG2TOX_R_SQUARED 0.17, read-out: LUCIFERASE INFECTION ASSAY - IC50): > 10 µM
COc1cccc(CNC(=S)SCC(=O)C(C)(C)C)c1	> 10.6	> 10.6	
CN1CCN(c2ccc(-c3cn4c(-c5ccc6ncccc6c5)cnc4cn3)cn2)CC1	3.03		IC50 (HEPG2TOX_HILL_SLOPE 4.41, HEPG2TOX_R_SQUARED 0.745, PBLUC_HILL_SLOPE 17.7, PBLUC_R_SQUARED 0.338, read-out: LUCIFERASE INFECTION ASSAY - IC50): 2.68 µM
Nc1nccnc1C(=O)Nc1nc2ccc(Oc3ccccc3)cc2s1	> 10	> 10	
CC1CCN(S(=O)(=O)c2ccc(C(=O)Nc3ncccc3O)cc2)CC1	> 10		IC50 (PBLUC_HILL_SLOPE 2.15, PBLUC_R_SQUARED 0.503, read-out: LUCIFERASE INFECTION ASSAY - IC50): 4.81 µM
Cc1c(Cl)cccc1N=C(SCC(=O)N(C)C1CCCCC1)C(C#N)c1nc2ccccc2s1 (stereo not drawn)	> 10	> 10	
O=C(NCCSCc1ccccc1Cl)c1cccs1	8.99		IC50 (PBLUC_HILL_SLOPE 3.91, PBLUC_R_SQUARED 0.447, read-out: LUCIFERASE INFECTION ASSAY - IC50): 5.12 µM
COc1ccc2cc(CN(C)CC(=O)Nc3sccc3C(N)=O)ccc2c1	4.94		IC50 (HEPG2TOX_HILL_SLOPE 0.237, HEPG2TOX_R_SQUARED 0.621, PBLUC_HILL_SLOPE 9.54, PBLUC_R_SQUARED 0.647, read-out: LUCIFERASE INFECTION ASSAY - IC50): 3.92 µM
Cc1ccc(Cl)cc1NC(=O)C[n+]1ccc(Cc2ccc([N+](=O)[O-])cc2)cc1	> 10		IC50 (HEPG2TOX_HILL_SLOPE 5.4, HEPG2TOX_R_SQUARED 0.89, PBLUC_HILL_SLOPE 4.32, PBLUC_R_SQUARED 0.492, read-out: LUCIFERASE INFECTION ASSAY - IC50): 6.22 µM
O=C(Nc1ccc(F)cc1)c1csc(C(O)c2cccc(Cl)c2)n1 (stereo not drawn)	> 10	> 10	
CC(C)(C)c1cc(C(=O)Nc2ccc(Cl)cc2)n(Cc2ccccc2)n1	> 8.97		IC50 (PBLUC_HILL_SLOPE 1.52, PBLUC_R_SQUARED 0.257, read-out: LUCIFERASE INFECTION ASSAY - IC50): 6.98 µM
COC(=O)c1occc1/C=C/C(=O)c1ccc(OCc2ccccc2)cc1	> 10	> 10	
Cn1ccc2cc(-c3cnc4cnc(-c5ccc(F)c(Cl)c5)cn34)ccc21	3.55		IC50 (HEPG2TOX_HILL_SLOPE 3.52, HEPG2TOX_R_SQUARED 0.929, PBLUC_HILL_SLOPE 14.4, PBLUC_R_SQUARED 0.566, read-out: LUCIFERASE INFECTION ASSAY - IC50): 3.05 µM
O=C(NCCCn1ccc2ccccc21)Nc1ccc(Cl)c(Cl)c1	> 10	> 10	
COc1ccc(CN(Cc2n/c(=N\c3ccccc3C)nc(N)[nH]2)Cc2n/c(=N\c3ccccc3C)nc(N)[nH]2)cc1OC	4.51		IC50 (PBLUC_HILL_SLOPE 2.79, 12.2, PBLUC_R_SQUARED 0.127, 0.675, read-out: LUCIFERASE INFECTION ASSAY - IC50): 2.77 µM
Nc1cccc(-c2ccnc3n[nH]c(-c4cccc(Cl)c4)c23)c1	7.12		IC50 (HEPG2TOX_HILL_SLOPE 22.1, HEPG2TOX_R_SQUARED 0.878, PBLUC_HILL_SLOPE 1.59, PBLUC_R_SQUARED 0.529, read-out: LUCIFERASE INFECTION ASSAY - IC50): 1.79 µM
O=c1c2ccccc2ncn1CCOCCOc1ccccc1-c1ccccc1	> 8.54		IC50 (HEPG2TOX_HILL_SLOPE 7.75, HEPG2TOX_R_SQUARED 0.123, read-out: LUCIFERASE INFECTION ASSAY - IC50): > 8.54 µM
O=C(CN1CCN(c2cccc(Cl)c2)CC1)Nc1nccs1	> 9.8	> 9.8	
COc1cc2c(cc1NC(=O)C(C)NCC(c1ccccc1)N(C)C)oc1ccccc12 (stereo not drawn)	> 10	> 10	
